Assay results published in US9675697B2 (THE REGENTS OF THE UNIVERSITY OF MICHIGAN, priority 2013, dated 2017).

Experiments:
prostate VCaP cell line = test: Cell growth inhibition, Cell TiterGLO, 4 days; format: cell-based; conditions: Homo sapiens, VCaP, 96 h, treated 4 days, read-out: VCaP cells (IC50 (nM))
BRD3 BD1 = BRD3 BD1 (Homo sapiens (Human), UniProt Q15059); test: FP competitive binding assay using Cpd. No. 350 as the probe; conditions: read-out: BRD3 BD1 Ki; FP, Cpd. No. 350 probe […]
Description: (§3) Fluorescence Polarization (FP) competitive binding studies (see above) were carried out using the FAM labeled fluorescent probe Cpd. No. 350 to determine binding affinities of representative compounds to both BD1 and BD2 of BRD2, BRD3, and BRD4 proteins. Equilibrium dissociation constants (Id) values of Cpd. No. 350 to these six proteins were determined from protein saturation experiments by monitoring the total fluorescence polarization of mixtures composed with the fluorescent probe at a fixed concentration and proteins with increasing concentrations up to full saturation. Serial dilutions of testing protein were mixed with Cpd. No. 350 to a final volume of 200 μl in the assay buffer. […] Plates were incubated at room temperature for 30 minutes with gentle shaking to assure equilibrium. […] Kd values of Cpd.
(§4) The IC50 and Ki values of compounds were determined in a competitive binding experiment as described above. […] FP values were measured as described above. IC50 values were determined by nonlinear regression fitting of the competition curves.

BRD3 BD2 = BRD3 BD2 (Homo sapiens (Human), UniProt Q15059); test: as above; conditions: read-out: BRD3 BD2 Ki; FP, Cpd. No. 350 probe […]
Description: as §3, §4

BRD2 BD1 = BRD2 BD1 (Homo sapiens (Human), UniProt P25440); test: as above; conditions: read-out: BRD2 BD1 Ki; FP, Cpd. No. 350 probe […]
Description: as §3, §4

MDA-MB-157 = test: Cell growth inhibition, WST-8, breast cancer cell line; format: cell-based; conditions: Homo sapiens, MDA-MB-157, 96 h, 4 days
Description: (§1) For breast cancer cell lines, cells were seeded in 96-well cell culture plates at a density of 5,000-10,000 cells/well with serially diluted compounds and incubated at 37° C. in an atmosphere of 95% air and 5% CO2 for 4 days. All the breast cancer cell lines were obtained from the ATCC. Cell viability was determined using the WST-8 (2-(2-methoxy-4-nitrophenyl)-3-(4-nitrophenyl)-5-(2,4-disulfophenyl)-2H-tetrazolium, monosodium salt) based Cell Counting-8 Kit (Dojindo Molecular Technologies, Inc., Rockville, Md.) according to the manufacture's instruction. Briefly, WST-8 was added to each well at a final concentration of 10% (v/v), and then the plates were incubated at 37° C. for 1-2 hours for color development. The absorbance was measured at 450 nm using a SPECTRAmax PLUS plate reader (Molecular Devices, Sunnyvale, Calif.). The IC50 was calculated using the GraphPad Prism 5 software.

MDA-MB-436 = test: as above; format: cell-based; conditions: Homo sapiens, MDA-MB-436, 96 h, 4 days
Description: as §1

BT-474 = test: as above; format: cell-based; conditions: Homo sapiens, BT-474, 96 h, 4 days
Description: as §1

MDA-MB-231 = test: as above; format: cell-based; conditions: Homo sapiens, MDA-MB-231, 96 h, 4 days
Description: as §1

SK-BR-3 = test: as above; format: cell-based; conditions: Homo sapiens, SK-BR-3, 96 h, 4 days
Description: as §1

MOLM-13 = test: Cell growth inhibition, CellTiter-Glo, acute leukemia cell line; format: cell-based; conditions: Homo sapiens, MOLM-13, 96 h, 4 days
Description: (§2) Cell growth inhibitory activity of representative BET bromodomain inhibitors was determined using CellTiter-Glo® Luminescent Cell Viability Assay. For leukemia cell lines MV-4-11 (ATCC, Manassas, Va.) and MOLM-13 (DSMZ, Germany), cells were seeded in 96-well white opaque cell culture plates at a density of 10,000 cells/well with serially diluted compounds and incubated at 37° C. in an atmosphere of 95% air and 5% CO2 for 4 days. Cell viability was determined using the CellTiter-Glo® Luminescent Cell Viability Assay Kit (Promega, Madison, Wis.) according to the manufacture's instruction. Briefly, a volume of CellTiter-Glo® Reagent equal to the volume of cell culture medium was added to each well, and then the plates were incubated at room temperature for 10-20 minutes. The luminescent signal was measured using a Tecan Infinite M1000 multimode microplate reader (Tecan, Morrisville, N.C.). The half maximal inhibitory concentration (IC50) was calculated using the GraphPad Prism 5 software (GraphPad Software, La Jolla, Calif.).

MV-4-11 = test: as above; format: cell-based; conditions: Homo sapiens, MV4-11, 96 h, 4 days
Description: as §2

BRD2 BD2 = BRD2 BD2 (Homo sapiens (Human), UniProt P25440); test: FP competitive binding assay using Cpd. No. 350 as the probe; conditions: read-out: BRD2 BD2 Ki; FP, Cpd. No. 350 probe […]
Description: as §3, §4

BRD4 BD1 = BRD4 BD1 (Homo sapiens (Human), UniProt O60885); test: as above; conditions: read-out: BRD4 BD1 Ki; FP, Cpd. No. 350 probe […]
BRD4 BD2 = BRD4 BD2 (Homo sapiens (Human), UniProt O60885); test: as above; conditions: read-out: BRD4 BD2 Ki; FP, Cpd. No. 350 probe […]
Description: as §3, §4

Sequence of BRD3 BD1 (Q15059 34-140): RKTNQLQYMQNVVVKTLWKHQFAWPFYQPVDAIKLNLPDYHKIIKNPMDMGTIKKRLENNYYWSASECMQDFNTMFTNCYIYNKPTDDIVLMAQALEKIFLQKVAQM
Sequence of BRD2 BD1 (P25440 74-180): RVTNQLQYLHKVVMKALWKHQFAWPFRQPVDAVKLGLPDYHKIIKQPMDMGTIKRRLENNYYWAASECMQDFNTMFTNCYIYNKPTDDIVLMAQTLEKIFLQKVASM
Sequence of BRD3 BD2 (Q15059 306-415): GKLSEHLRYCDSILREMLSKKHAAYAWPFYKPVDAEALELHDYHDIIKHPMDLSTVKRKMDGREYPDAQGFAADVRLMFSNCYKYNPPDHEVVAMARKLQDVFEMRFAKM
Sequence of BRD2 BD2 (P25440 344-453): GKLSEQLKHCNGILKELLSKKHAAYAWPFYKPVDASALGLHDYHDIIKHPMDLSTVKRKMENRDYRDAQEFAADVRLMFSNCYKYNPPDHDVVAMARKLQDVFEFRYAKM

Molecule `COc1cc2c(cc1-c1c(C)noc1C)[nH]c1nc(C)nc(-c3c(C)[nH]c4ccccc34)c12` [Cpd. No. 68] has an IC50 (prostate VCaP cell line) of 148 nM, a Ki (BRD3 BD1) of 5.1 nM and a Ki (BRD3 BD2) of 0.65 nM. The Ki (BRD2 BD1) was 3.2 nM, the IC50 (MDA-MB-157) was under 300 nM and the IC50 (MDA-MB-436) was under 300 nM. The IC50 (BT-474) was under 300 nM, the IC50 (MDA-MB-231) was under 300 nM and the IC50 (SK-BR-3) was under 300 nM. The IC50 (MOLM-13) was under 100 nM, the IC50 (MV-4-11) was under 100 nM and the Ki (BRD2 BD2) was 2.7 nM. For the same molecule, the Ki (BRD4 BD1) was 7.3 nM and the Ki (BRD4 BD2) was 1.7 nM.
